Results published in publication PMC13070491, “Single-nucleus transcriptomics, pharmacokinetics, and pharmacodynamics of CDK4/6 and mTOR inhibition in a Phase 0/1 trial of recurrent high-grade glioma” (Neuro-Oncology, 2025).
Where “and” joins values, the source holds several entries; their conditions need not be identical. Equal entries are not always repeated.

How the values were obtained:
[1] = Plasma pharmacokinetic parameters (LC-MS/MS); settings: plasma; for AUC(0-t) / Cmax / half-life / Tmax: human, oral; for AUC(0-t): Total Ribociclib AUClast; for Cmax: Total Ribociclib Cmax
Method: Pharmacokinetic evaluation was conducted as previously described[8] using a validated liquid chromatography with tandem mass spectrometry (LC-MS/MS) method.[16] […] CSF samples were intraoperatively collected.

GB86 = test: Ribociclib-treated in vitro single-cell RNA sequencing, malignant state proportions; assay type: cell-based, human; settings: ribociclib vs DMSO 5 days
From the text: (§1) Patient-derived glioma stem cell lines (GSCs; GB126, GB86, and GB239) were established from resected GBM tumor tissue. Cell lines were genetically profiled for mutations and copy number aberrations using the […] custom gene panel. All cell lines harbored high-level CDK4 amplifications among other alterations. […] The single-cell RNA sequencing data were then processed via cellranger count and Seurat. Briefly, cells were filtered out based on the following criteria: minimum number of genes detected >500 and <10 000 with a maximum percentage of mitochondrial genes set to 10%. Statistical assessment was made between the malignant proportions of each cell state using a 2-sided paired t-test.

GB239 = test: as above; assay type: cell-based, human; settings: ribociclib vs DMSO 5 days
From the text: as §1

GB126 = test: as above; assay type: cell-based, human; settings: ribociclib vs DMSO 5 days
From the text: as §1

[2] = 900 mg QD 5 days monotherapy; ref Tien A, Clin Cancer Res 2019; cited from earlier work
pS6 ribosomal protein = test: IHC of tumor tissue, pS6 ribosomal protein positive cells; assay type: in vivo, human; settings: 5 days ribociclib + everolimus; paired t-test P > .05
Method: (§2) Everolimus pharmacodynamic biomarkers were assessed using IHC with the following antibodies: anti-p4EBP1 (Cell Signaling Technology; #2855, 1:500); anti-pS6 ribosomal protein (Cell Signaling -Technology; #4858, 1:100). IHC staining was performed using the BOND RX automated system (Leica Biosystems) as previously described.[8] Stained slides were imaged on a Leica Versa microscope and analyzed with Aperio Image software. Percentage of stain-positive cells was quantified from at least 6 randomly selected regions of interest within the tumor as assessed by a board-certified neuropathologist.

[3] = Adverse events related to study treatment (CTCAE); assay type: in vivo, human
Method: Eligibility was determined based on previous clinical records, panel DNA sequencing, and IHC of archival tissue from a previous surgery (Figure 1, Supplementary Figure S2A).

Ki-67 = test: IHC of tumor tissue, percentage of Ki-67 positive cells, archival vs Phase 0 surgical sample; assay type: in vivo, human
p4EBP1 = test: IHC of tumor tissue, p4EBP1 positive cells; assay type: in vivo, human; settings: 5 days ribociclib + everolimus; paired t-test P > .05
Method: as §2

[4] = test system: phosphorylated Rb protein in GB126, GB86 and GB239 glioma stem cell lines; test: Determination of ribociclib dose in vitro (phosphorylated Rb, Western blotting); assay type: cell-based, human; settings: 5 days, tested 0.5, 1 and 5 μM
Method: Patient-derived glioma stem cell lines (GSCs; GB126, GB86, and GB239) were established from resected GBM tumor tissue. Cell lines were genetically profiled for mutations and copy number aberrations using the IvySeq custom gene panel. […] GB239 was derived from a tumor sample included in this Phase 0 trial (tumor sample: 100-0039). All human GSCs were cultured as described previously.[12]

[5] = Dose Level 4: ribociclib 600mg QD 5 days + everolimus 50mg single dose, CTCAE grade 1
[6] = Dose Level 5: ribociclib 600mg QD 5 days + everolimus 60mg single dose, CTCAE grade 2

Compound `CN(C)C(=O)c1cc2cnc(Nc3ccc(N4CCNCC4)cn3)nc2n1C1CCCC1` [Ribociclib, ribociclib] has an AUC(0-t) ([1]; 400 mg, Mean) of 18.5 µM·h, an AUC(0-t) ([1]; 400 mg, Median) of 13.8 µM·h and a Cmax ([1]; 400 mg, Median) of 1320 nM. The half-life ([1]; 400 mg, Total Ribociclib T1/2, plasma, Mean) was 13.1 h, the half-life ([1]; 400 mg, Total Ribociclib T1/2, plasma, Median) was 11.4 h and the half-life ([1]; 400 mg, Unbound Ribociclib T1/2, plasma, Mean) was 11.3 h. The half-life ([1]; 400 mg, Unbound Ribociclib T1/2, plasma, Median) was 11.2 h, the half-life ([1]; 400 mg, Unbound Ribociclib T1/2, plasma, individual patients) was 7.04 h and the Tmax ([1]; 400 mg, Unbound Ribociclib Tmax, Mean) was 2.65 h. For the same compound, the AUC(0-t) ([1]; 600 mg, Mean) was 28.4 µM·h, the Cmax ([1]; 600 mg, Mean) was 2190 nM and the Cmax ([1]; 600 mg, Median) was 1810 nM. For the same compound, the half-life ([1]; 600 mg, Total Ribociclib T1/2, plasma, Mean) was 17.3 h, the Tmax ([1]; 600 mg, Total Ribociclib Tmax, Mean) was 3.23 h and the half-life ([1]; 600 mg, Unbound Ribociclib T1/2, plasma, Median) was 11.5 h. The Tmax ([1]; 600 mg, Unbound Ribociclib Tmax, Mean) was 4.76 h, the “Total Ribociclib CL/F” value ([1]; 400 mg, Mean) was 62.22 L/h and the “Total Ribociclib Tmax” value ([1]; 400 mg, Mean) was 3.00 h. For the same compound, the “Unbound Ribociclib Cmax” value ([1]; 400 mg, Mean) was 290 nM, the “Total Ribociclib CL/F” value ([1]; 400 mg, Median) was 66.79 L/h and the “Unbound Ribociclib Cmax” value ([1]; 400 mg, Median) was 230 nM. The “Total Ribociclib CL/F” value ([1]; 400 mg, individual patients) was 65.30 L/h and 28.56 L/h and 68.28 L/h and 29.74 L/h and 83.61 L/h and 97.80 L/h, the “Unbound Ribociclib Cmax” value ([1]; 400 mg, individual patients) was 310 nM and 690 nM and 150 nM and 260 nM and 120 nM and 190 nM and the “Unbound Ribociclib T1/2” value ([1]; 400 mg, individual patients) was 15.62 h and 13.50 h and 9.01 h. The “Total Ribociclib CL/F” value ([1]; 600 mg, Mean) was 59.77 L/h, the “Unbound Ribociclib Cmax” value ([1]; 600 mg, Mean) was 320 nM and the “Unbound Ribociclib T1/2” value ([1]; 600 mg, Mean) was 15.49 h. For the same compound, the “Total Ribociclib CL/F” value ([1]; 600 mg, Median) was 55.14 L/h, the “Unbound Ribociclib Cmax” value ([1]; 600 mg, Median) was 280 nM and the “Total Ribociclib CL/F” value ([1]; 600 mg, individual patients) was 22.31 L/h and 79.68 L/h and 49.86 L/h and 52.45 L/h and 57.05 L/h and 59.00 L/h and 104.11 L/h and 29.22 L/h and 48.20 L/h and 71.59 L/h and 35.82 L/h and 156.41 L/h and 47.05 L/h and 55.14 L/h and 66.74 L/h and 66.55 L/h and 50.38 L/h and 59.19 L/h and 24.80 L/h. For the same compound, the “Total Ribociclib Tmax” value ([1]; 600 mg, individual patients) was 3.98 h and 1.67 h and 4.00 h, the “Unbound Ribociclib Cmax” value ([1]; 600 mg, individual patients) was 580 nM and 280 nM and 370 nM and 290 nM and 260 nM and 340 nM and 310 nM and 730 nM and 300 nM and 220 nM and 380 nM and 90 nM and 210 nM and 180 nM and 240 nM and 230 nM and 470 nM and the “Unbound Ribociclib T1/2” value ([1]; 600 mg, individual patients) was 14.45 h and 9.00 h and 8.65 h and 15.15 h and 15.94 h and 42.32 h. For the same compound, the “change in cycling cells” value (GB86; paired t-test P = .04) was “decrease”, the “AC-like malignant state proportion” value (GB86; paired t-test P = .06) was “increase” and the “change in cycling cells” value (GB239; paired t-test P = 5.4E-4) was “decrease”. The “AC-like malignant state proportion” value (GB239; paired t-test P = .03) was “increase”, the “MES-like malignant state proportion” value (GB126) was “increase” and the “AC-like malignant state proportion” value (GB126; paired t-test P = 6.6E-3) was “increase”. For the same compound, the “change in cycling cells” value (GB126; paired t-test P = 8.7E-4) was “decrease”, the “Total Ribociclib concentration, CSF, Maximum” value [2] was 838 nM and the “Total Ribociclib concentration, CSF, Median” value [2] was 267 nM. For the same compound, the “Total Ribociclib concentration, CSF, Minimum” value [2] was 43 nM, the “Total Ribociclib concentration, Enhancing tumor, Maximum” value [2] was 71.76 µM and the “Total Ribociclib concentration, Enhancing tumor, Median” value [2] was 29.252 µM. The “Total Ribociclib concentration, Enhancing tumor, Minimum” value [2] was 6.586 µM, the “Total Ribociclib concentration, Non-enhancing tumor, Maximum” value [2] was 31.424 µM and the “Total Ribociclib concentration, Non-enhancing tumor, Median” value [2] was 12.176 µM. The “Total Ribociclib concentration, Non-enhancing tumor, Minimum” value [2] was 452 nM, the “Unbound Ribociclib concentration, CSF, Maximum” value [2] was 645 nM and the “Unbound Ribociclib concentration, CSF, Median” value [2] was 152 nM. For the same compound, the “Unbound Ribociclib concentration, CSF, Minimum” value [2] was 18 nM, the “Unbound Ribociclib concentration, Enhancing tumor, Maximum” value [2] was 4.743 µM and the “Unbound Ribociclib concentration, Enhancing tumor, Median” value [2] was 1644 nM. The “Unbound Ribociclib concentration, Enhancing tumor, Minimum” value [2] was 307 nM, the “Unbound Ribociclib concentration, Non-enhancing tumor, Maximum” value [2] was 1295 nM and the “Unbound Ribociclib concentration, Non-enhancing tumor, Median” value [2] was 482 nM. The “mTOR pathway activity as quantified by pS6, surgical specimen vs archival tissue” value (pS6 ribosomal protein) was “elevated but not significantly different”, the “Dizziness, No. Patients Affected” value [3, 5] was 1 and the “Photophobia, No. Patients Affected” value [3, 5] was 1. For the same compound, the “Platelet count decreased, No. Patients Affected” value ([3]; Dose Level 5: ribociclib 600mg QD 5 days + everolimus 60mg single dose, CTCAE grade 1) was 1, the “Nausea, No. Patients Affected” value [3, 6] was 1 and the “Pancytopenia (serious adverse event), No. Patients Affected” value [3, 6] was 1. The “Electrocardiogram QT prolonged, No. Patients Affected” value ([3]; Dose Level 6: ribociclib 600mg QD 5 days + everolimus 70mg single dose, CTCAE grade 1) was 1, the “change in proliferative Ki-67 marker, surgical samples vs matched archival tissue” value (Ki-67; IDH-wildtype patients n = 20, paired t-test P = .02, 5 days ribociclib + everolimus) was “significant decrease” and the “median decrease in Ki-67” value (Ki-67; ribociclib 400 mg) was 2.93%. For the same compound, the “median decrease in Ki-67” value (Ki-67; ribociclib 600 mg) was 8.94%, the “mTOR pathway activity as quantified by p4EBP1, surgical specimen vs archival tissue” value (p4EBP1) was “elevated but not significantly different” and the “dose per cell line that achieved a 50% inhibition of pRb” value [4] was 0.5-5 µM.
